{
  "source": "patent US10149818B2",
  "about": "(UCB PHARMA GMBH, priority 2010, dated 2018)",
  "key": {"[1]": {"test_system": "subjects with partial-onset seizures", "test": "PK-PD modeling of seizure frequency, Emax model, pooled clinical trials (Example 54)", "format": "in vivo, human", "from_the_text": "Objectives of the PK-PD analysis were to evaluate and describe the correlation between the LCM plasma concentration over time (PK parameter) and the reduction of daily seizures over time (PD parameter) based on the pooled data from the previous clinical human trials.\nThe evaluation of PK-PD modeling was done based on the Emax model.\nThe following Table 8 summarizes the PK-PD modeling results using the Emax model.\nThe slope of the linear regression is equal to the mean daily number of seizures.\nBased on the relative difference of the individual slopes during Titration and Maintenance Phase vs Baseline slope and the approximated AUCT,ss,m, the PK-PD evaluation was performed using a linear model, the Emax model, and the Emax 100 model. […] Finally, the Emax model had the lowest weighted sum of squares and was therefore selected as the most appropriate PK-PD model to describe the data. […] The AUC50 is defined as the AUC[…],ss that is needed in individuals to achieve 50% of the maximum effect (decrease in seizure frequency)."}, "[2]": {"conditions": "IR tablets twice daily; average distribution volume of 50 liters; cited from earlier work"}},
  "data": [
    {"compound": "COC[C@@H](NC(C)=O)C(=O)NCc1ccccc1", "note": "[lacosamide, (R)-2-Acetamido-N-benzyl-3-methoxypropionamide]", "values": [
      {"measurement": "decrease in partial seizure frequency at AUC50", "setting": "[1]; 50% of the maximum effect", "value": 35, "unit": "%"},
      {"measurement": "decrease of seizures as % of the maximum effect", "setting": "[1]; AUC of 67 μg/mL*h (mean dose 200 mg LCM bid in a typical subject)", "value": 65, "unit": "%"},
      {"measurement": "AUC,tau,ss corresponding to kd", "setting": "[1]; Emax model", "value": 35, "unit": "µg·h/mL"},
      {"measurement": "EC50", "setting": "[1]; Homo sapiens, Emax model, plasma concentration, read-out: kd, concentration for half of the maximum effect", "value": 2.92, "unit": "µg/mL"},
      {"measurement": "decrease of seizures as % of the maximum effect", "setting": "[1]; human, in vivo", "value": 74, "unit": "%"},
      {"measurement": "maximum dosage-normalized lacosamide steady state plasma levels (Cmax, ss, norm)", "setting": "[2]", "value": "40 to 43", "unit": "ng/mL/mg"}
    ]}
  ]
}
